Common to all, as to type: cell-based
Assay [1] deals with T1, P2X7 receptor (Homo sapiens, UniProt Q99572).
T1 sequence (Q99572 1-595): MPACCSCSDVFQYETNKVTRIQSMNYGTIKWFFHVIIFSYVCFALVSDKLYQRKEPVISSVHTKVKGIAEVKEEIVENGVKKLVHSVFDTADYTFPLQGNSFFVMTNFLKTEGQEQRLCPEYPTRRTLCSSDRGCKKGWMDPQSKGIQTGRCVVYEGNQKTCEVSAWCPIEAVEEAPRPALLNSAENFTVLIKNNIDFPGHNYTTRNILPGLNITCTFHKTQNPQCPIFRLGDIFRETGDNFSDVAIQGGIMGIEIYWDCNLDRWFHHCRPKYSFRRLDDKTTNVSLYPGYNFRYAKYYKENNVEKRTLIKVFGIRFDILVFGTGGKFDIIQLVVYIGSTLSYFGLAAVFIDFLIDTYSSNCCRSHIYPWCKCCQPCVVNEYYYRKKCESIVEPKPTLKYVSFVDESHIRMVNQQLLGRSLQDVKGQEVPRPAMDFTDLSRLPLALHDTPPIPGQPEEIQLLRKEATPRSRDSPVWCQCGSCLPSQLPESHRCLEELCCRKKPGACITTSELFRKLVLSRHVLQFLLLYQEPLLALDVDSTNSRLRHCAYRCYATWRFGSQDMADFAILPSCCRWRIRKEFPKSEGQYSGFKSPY
The experiment in a line: YO-PRO-1 uptake assay. Further details: expressed in transfected cells. The settings on record: HEK-293 cells stably transfected with P2X7 receptor; Bz-ATP EC80 (30 μM); Low Divalent Cation Assay Buffer. An excerpt:
YO-PRO®-1 is a fluorescent DNA-binding dye with a MW of 374 Da (Molecular Probes®, cat. Y3603). This method is based upon the presumed ability of YO-PRO®-1 to enter through the dilated or “large pore form” of P2X7 receptor and to bind to intracellular DNA whereupon it increases many fold its fluorescence intensity. The dye ha an absorption spectrum compatible with excitation at 488 nm by argon laser sources and its emission wavelength is in the range of 515-575 nm. The aim of this assay was to validate the interaction of antagonists with P2X7 receptor using an alternative readout to Ca2+-sensitive fluorescent dyes.
HEK-293 cells stably transfected with P2X7 receptor were seeded overnight un growth medium at 20,000 cell/well in 384-well plate. 24 hours later, the medium was removed, the cells were washed with Low Divalent Cation Assay Buffer (0.3 mM Ca^2+ and 0 mM Mg^2+) and then pre-loaded with 20 μL/w of 5 μM YO-PRO®-1 dye.
FLIPRTETRA fluorescence measurement immediately started. Then 10 μL/w of test compounds and reference antagonist A438079 at 3×-concentration were injected with the FLIPRTETRA and the kinetic response over a period of five minutes was monitored. A second injection of 10 μL/w of 3× Bz-ATP EC80 (30 μM) was performed with the FLIPRTETRA and the signal of the emitted fluorescence was recorded for additional 60 minutes. All the experiment was carried out with a Low Divalent Cation Assay Buffer (0.3 mM Ca^2+ and 0 mM Mg^2+).
The effect of the test compounds was measured as percent inhibition vs the reference antagonist and IC50 values were calculated accordingly.

In assay [2] the target is T1, P2X7 receptor. The experiment in a line: Automated patch-clamp (QPatch16X) P2X7 channel assay. Further details: expressed in transfected cells; host or cells: HEK-293. The settings on record: HEK-293 cells expressing P2X7 channels; whole-cell, held at -80 mV; 100 microM BzATP; compound 1, 10, 100 and 1000 nM; read-out: Q-Patch (IC50). The procedure:
In order to directly monitor the block of P2X7 channel, an electrophysiological assay was developed and implemented on the QPatch16X automated electrophysiology instrument.
HEK-293 cells expressing the P2X7 channels were cultured in modified EMEM.
72 hours before experiment, 5 million cells were seeded onto T225 flasks. Just before the experiment cells were washed twice, detached from the flask with trypsin-EDTA, re-suspended in the suspension solution and placed on the QPatch 16x.
The compounds (20 mM in a 100% DMSO) stored at −20° C. were prepared the day of the experiment (a first dilution 1:20 in 100% DMSO to prepare a 1 mM stock solution, then a 1 microM solution in external solution+a serial dilution 1:10).
The standard whole-cell voltage clamp experiments were performed at room temperature. From these experiments the multihole technology was used and the data were sampled at 2 KHz.
The intracellular solution contained (mM) 135 CsF, 10 NaCl, 1 EGTA, 10 HEPES, (pH 7.2 with CsOH) whereas the extracellular contained (mM) 145 NaCl, 4 KCl, 0.5 MgCl2, 1 CaCl2, 10 HEPES, 10 Glc (pH 7.4 with NaOH).
After establishment of the seal and the passage in the whole cell configuration, the cells were held at −80 mV. The P2XR7 current was evoked by applying 100 microM of BzATP alone (4 times) and then in the presence increasing concentrations of the compound under investigation (1, 10, 100 and 1000 nM).
The pre-incubation periods 5 to 8 contain increasing concentrations of the compound of interest (1, 10, 100 and 1000 nM), as illustrated in FIGURE (application protocol).
The maximal inward current evoked by BzATP in absence or presence of increasing concentrations of the compounds under investigation was measured and normalized. The potential […] effect was measured as % of control and as IC50 determined fitting the dose-response curves data with the following equation: Y=100/(1+10^((Log IC50−X)*HillSlope))
On the technique in general: In patch-clamp work, channel activity is measured electrically.

Assay [3] concerns the target T1, P2X7 receptor. The experiment in a line: Screen Quest Fluo-8 No Wash Calcium Assay (Bz-ATP evoked Ca2+ influx, FLIPR). Further details: hP2X7 (IC50; nM); other: hP2X7; HEK-293 cells stably transfected with P2X7 receptor, Bz-ATP at EC80, Fluo-8 NW; potency. The settings on record: hP2X7; HEK-293 cells stably transfected with P2X7 receptor, Bz-ATP at EC80, Fluo-8 NW; potency ranges A-D. An outline of the steps:
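Compounds were added to Fluo-8-loaded P2X7-transfected HEK-293 cells 5 min before an EC80 Bz-ATP challenge, and Ca2+ influx was then recorded for 3 min. Buffer held 0.3 mM Ca2+ and no Mg2+. Inhibition was normalised to A438079, giving IC50 values.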

Data on 17 compounds can be found in patent US11623919B2, “Heterocyclic P2X7 antagonists” (AXXAM S.P.A., priority 2017, dated 2023).

For the compound `O=c1onc(Cc2c(F)cccc2Cl)n1Cc1ccc(F)cc1Cl` [Example 60, 4-[(2-chloro-4-fluorophenyl)methyl]-3-[(2-chloro-6-fluorophenyl)methyl]-4,5-dihydro-1,2,4-oxadiazol-5-one], the IC50 (in general, the concentration that gives 50% inhibition) is 366 nM against P2X7 receptor [1], 623 nM at P2X7 receptor [2] and 200 to 1000 nM on P2X7 receptor [3].

As to `O=c1onc(Cc2ccc(F)cc2Cl)n1Cc1ccc(F)cc1` [Example 73, 3-[(2-chloro-4-fluorophenyl)methyl]-4-[(4-fluorophenyl)methyl]-4,5-dihydro-1,2,4-oxadiazol-5-one], the half-inhibitory concentration (IC50) at P2X7 receptor [1] is 670 nM; at P2X7 receptor [2], 423 nM; on P2X7 receptor [3] it was 200 to 1000 nM.

As to `CC1CCCCC1Cn1c(Cc2c(F)cccc2Cl)noc1=O` (stereo not drawn) [Example 87, 3-[(2-chloro-6-fluorophenyl)methyl]-4-[(2-methylcyclohexyl)methyl]-4,5-dihydro-1,2,4-oxadiazol-5-one], the IC50 on P2X7 receptor [1] was 82 nM; on P2X7 receptor [2], 44.1 nM; at P2X7 receptor [3] it was < 200 nM.

`O=c1onc(Cc2ccccc2Cl)n1CC1CCCCC1` [Example 117, 3-[(2-chlorophenyl)methyl]-4-(cyclohexylmethyl)-4,5-dihydro-1,2,4-oxadiazol-5-one]: the IC50 was 143 nM on P2X7 receptor [1], 94.9 nM at P2X7 receptor [2] and 200 to 1000 nM on P2X7 receptor [3].

With `O=c1onc(Cc2c(F)cccc2Cl)n1CC1CCCCO1` (stereo not drawn) [Example 94, 3-[(2-chloro-6-fluorophenyl)methyl]-4-(oxan-2-ylmethyl)-4,5-dihydro-1,2,4-oxadiazol-5-one], the results for the IC50 against P2X7 receptor [1], at P2X7 receptor [2] and at P2X7 receptor [3] were 435 nM, 332 nM and 200 to 1000 nM, respectively.

Regarding `O=c1onc(Cc2ccc(F)cc2F)n1CC1CCCCC1` [Example 119, 4-(cyclohexylmethyl)-3-[(2,4-difluorophenyl)methyl]-4,5-dihydro-1,2,4-oxadiazol-5-one], the half-maximal inhibitory concentration (IC50) is 547 nM at P2X7 receptor [1], 268 nM at P2X7 receptor [2] and 200 to 1000 nM at P2X7 receptor [3].

For `O=c1onc(Cc2cccc(Cl)c2Cl)n1CC1CCCCC1` [Example 115, 4-(cyclohexylmethyl)-3-[(2,3-dichlorophenyl)methyl]-4,5-dihydro-1,2,4-oxadiazol-5-one], the 50% inhibitory concentration (IC50) against P2X7 receptor [1] was 399 nM; at P2X7 receptor [2], 72.7 nM; at P2X7 receptor [3], 200 to 1000 nM.

On to `O=c1onc(Cc2c(F)cccc2Cl)n1CC1CCCCCC1` [Example 92, 3-[(2-chloro-6-fluorophenyl)methyl]-4-(cycloheptylmethyl)-4,5-dihydro-1,2,4-oxadiazol-5-one], for which the concentration for half-maximal inhibition (IC50) against P2X7 receptor [1] is 42 nM; on P2X7 receptor [2] it was 18.1 nM; at P2X7 receptor [3], < 200 nM.

On to `CC(c1ccc(F)cc1)n1c(Cc2c(F)cccc2Cl)noc1=O` (stereo not drawn) [Example 48, 3-[(2-chloro-6-fluorophenyl)methyl]-4-[1-(4-fluorophenyl)ethyl]-4,5-dihydro-1,2,4-oxadiazol-5-one], for which the results for the IC50 on P2X7 receptor [1], at P2X7 receptor [2] and on P2X7 receptor [3] were 340 nM, 386 nM and 200 to 1000 nM, respectively.

In the case of `O=c1onc(Cc2ccccc2Cl)n1Cc1ccc(F)cc1` [Example 76, 3-[(2-chlorophenyl)methyl]-4-[(4-fluorophenyl)methyl]-4,5-dihydro-1,2,4-oxadiazol-5-one], the IC50 is 168 nM at P2X7 receptor [1], 401 nM at P2X7 receptor [2] and 200 to 1000 nM at P2X7 receptor [3].

Consider `O=c1onc(Cc2c(F)cccc2Cl)n1Cc1ccc(F)cc1` [Example 55, 3-[(2-chloro-6-fluorophenyl)methyl]-4-[(4-fluorophenyl)methyl]-4,5-dihydro-1,2,4-oxadiazol-5-one], for which the half-maximal inhibitory concentration (IC50) at P2X7 receptor [1] was 50 nM; on P2X7 receptor [2] it was 33.8 nM; on P2X7 receptor [3] it was 200 to 1000 nM.

Turning to `O=c1onc(Cc2cccc(Cl)c2Cl)n1Cc1ccc(F)cc1` [Example 71, 3-[(2,3-dichlorophenyl)methyl]-4-[(4-fluorophenyl)methyl]-4,5-dihydro-1,2,4-oxadiazol-5-one], the values for the concentration for half-maximal inhibition (IC50) on P2X7 receptor [1], at P2X7 receptor [2] and on P2X7 receptor [3] were 461 nM, 1160 nM and 200 to 1000 nM, respectively.

In the case of `CC1(C)CCCCC1Cn1c(Cc2c(F)cccc2Cl)noc1=O` (stereo not drawn) [Example 99, 3-[(2-chloro-6-fluorophenyl)methyl]-4-[(2,2-dimethylcyclohexyl)methyl]-4,5-dihydro-1,2,4-oxadiazol-5-one], the figures for the IC50 against P2X7 receptor [1], on P2X7 receptor [2] and at P2X7 receptor [3] were 142 nM, 124 nM and 200 to 1000 nM, respectively.

For the compound `O=c1onc(Cc2ccc(Cl)cc2Cl)n1CC1CCCCC1` [Example 118, 4-(cyclohexylmethyl)-3-[(2,4-dichlorophenyl)methyl]-4,5-dihydro-1,2,4-oxadiazol-5-one], the results for the concentration for half-maximal inhibition (IC50) against P2X7 receptor [1], on P2X7 receptor [2] and on P2X7 receptor [3] were 618 nM, 1090 nM and 200 to 1000 nM, respectively.

For `O=c1onc(Cc2c(F)cccc2Cl)n1CC1CCC(F)(F)C1` (racemic) [Example 128, 3-[(2-chloro-6-fluorophenyl)methyl]-4-[(3,3-difluorocyclopentyl)methyl]-4,5-dihydro-1,2,4-oxadiazol-5-one], the concentration for half-maximal inhibition (IC50) against P2X7 receptor [1] was 115 nM; at P2X7 receptor [2], 45.2 nM; at P2X7 receptor [3], < 200 nM.

With `Cc1cc(F)ccc1Cn1c(Cc2c(F)cccc2Cl)noc1=O` [Example 25, 3-[(2-chloro-6-fluorophenyl)methyl]-4-[(4-fluoro-2-methylphenyl)methyl]-4,5-dihydro-1,2,4-oxadiazol-5-one], the figures for the half-maximal inhibitory concentration (IC50) against P2X7 receptor [1], at P2X7 receptor [2] and at P2X7 receptor [3] were 115 nM, 51.1 nM and < 200 nM, respectively.

Consider `O=c1onc(Cc2ccccc2C(F)(F)F)n1CC1CCCCC1` [Example 116, 4-(cyclohexylmethyl)-3-{[2-(trifluoromethyl)phenyl]methyl}-4,5-dihydro-1,2,4-oxadiazol-5-one], for which the figures for the concentration for half-maximal inhibition (IC50) on P2X7 receptor [1], at P2X7 receptor [2] and at P2X7 receptor [3] were 284 nM, 466 nM and 200 to 1000 nM, respectively.
